The record followed here is patent US20110015371A1 (Vertex Pharmaceuticals Incorporated, priority 1994, published 2011).

The test system of series [1] is Human Peripheral Blood Mononuclear Cells (PBMC) or Enriched Adherent Mononuclear Cells. The experiment in a line: Cell assay: IL-1β assay with human PBMC or enriched adherent mononuclear cells. Format: cell-based. The settings on record: Homo sapiens, PBMC, LPS-stimulated cells, mature IL-1β in supernatant by ELISA. The gist of the method:
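Human PBMC (suspension at 6×10^6 cells/ml) or adherent monocytes enriched by 1 h plating (2.5−3.0×10^5 cells/well) were stimulated with 5 ng/ml LPS (final) plus compound (5-6 dilutions, 0.1% DMSO final) for 16-18 hr at 37° C. Mature IL-1β in supernatants quantified by ELISA; duplicate cultures, duplicate ELISAs.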
A general note: In an ELISA, binding on a coated surface is turned into a signal by an enzyme label.

Series [2] concerns the target T1, ICE (Homo sapiens, UniProt P29466).
T1 sequence (P29466 120-297 limits assumed): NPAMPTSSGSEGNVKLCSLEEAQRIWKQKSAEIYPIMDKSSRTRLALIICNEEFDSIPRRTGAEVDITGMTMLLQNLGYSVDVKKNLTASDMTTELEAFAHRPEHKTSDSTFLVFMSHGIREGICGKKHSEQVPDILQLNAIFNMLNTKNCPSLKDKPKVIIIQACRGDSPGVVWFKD
T1 sequence (P29466 317-404 limits assumed): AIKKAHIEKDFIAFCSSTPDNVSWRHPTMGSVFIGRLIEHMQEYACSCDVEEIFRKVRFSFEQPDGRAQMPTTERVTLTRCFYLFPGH
The experiment in a line: Enzyme assay with UV-visible substrate (Succinyl-Tyr-Val-Ala-Asp-pNitroanilide). It is filed as biochemical. Summed up: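 Colorimetric caspase-1 assay: rate of chromophore release from the pNA-tetrapeptide substrate monitored at 37° C for 20 minutes at 405-603 nm, after 15 min room-temperature enzyme–inhibitor preincubation. Ki values and competitive/uncompetitive/noncompetitive mode obtained by kinetic-equation fitting of rates across inhibitor concentrations.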

Series [3] has as its target T1, ICE. Nature of the series: Enzyme assay with fluorescent substrate (Acetyl-Tyr-Val-Ala-Asp-AMC). The note with it: Example 2 table, read-out: Fluorescence Ki. It is filed as biochemical. The protocol: 2. Enzyme Assay with Fluorescent Substrate
This assay is run essentially according to Thornberry et al. (Nature 356: 768-774 (1992)), using substrate 17 referenced in that article. The substrate is: Acetyl-Tyr-Val-Ala-Asp-amino-4-methylcoumarin (AMC). The following components are mixed:
The assay is run in a 96 well microtiter plate. Buffer and ICE are added to the wells. The components are left to incubate at 37° C. for 15 minutes in a temperature-controlled wellplate. After the 15 minute incubation, the reaction is started by adding substrate directly to the wells and the reaction is monitored @37° C. for 30 minutes by following the release of the AMC fluorophore using an excitation wavelength for 380 nm and an emission wavelength of 460 nm. A linear fit of the data for each well is performed and a rate is determined in fluorescence units per second.
For determination of enzyme inhibition constants (Ki) or the mode of inhibition (competitive, uncompetitive or noncompetitive), the rate data determined in the enzyme assays at varying inhibitor concentrations are computer-fit to standard enzyme kinetic equations (see I. H. Segel, Enzyme Kinetics, Wiley-Interscience, 1975).

Each structure is given as a SMILES string. Non-standard residues stand in square brackets, D forms with d. Residues, ends and D or L forms follow the SMILES beside them. Pip = O=C(O)[C@@H]1CCCCN1 A value given as a limit tells only on which side of the number the result lay.

For orientation: IC50 means the concentration needed to halve the response being measured. A lower IC50 goes with greater potency. Usually melting point stands for the temperature of the solid-liquid transition. In turn, `CC(=O)N[C@@H](Cc1ccc(O)cc1)C(=O)N[C@H](C(=O)N[C@@H](C)C(=O)N[C@H](CC(=O)O)C(=O)COCc1c(Cl)cccc1Cl)C(C)C` (mixture of isomers) [Compound 84b, (R,S)N-[N-(Acetyl)tyrosinyl-valinyl-alaninyl]-3-amino-5-(2,6-dichlorophenylmethyloxy)-4-oxo-pentanoic acid] had a melting point of 165 to 168 °C. The molecule also registered an IC50 in series [1] (Example 4 table) of 500 nM.

The molecule `C[C@H](NC(=O)c1nc(Cc2ccccc2)c[nH]1)C(=O)N[C@H](C=O)CC(=O)O` [Compound 20b, (3S)3-[N-(4-Benzylimidazole-2-carbonyl)-L-alaninyl]amino-4-oxobutanoic acid] returned a melting point of 113 to 115 °C. Also, in series [1] (Example 4 table), the midpoint of inhibition, the IC50, lay at 16400 nM.

`O=C[C@H](CC(=O)O)NC(=O)[C@@H]1CCCN1C(=O)c1nc(CCCc2ccccc2)c[nH]1` [Compound 21d, (3S)3-{N-[4-(3-Phenylpropyl)imidazole-2-carbonyl]-L-prolinyl}amino-4-oxo-butanoic acid] returned a melting point of 91 to 94 °C. In series [1] (Example 4 table), this molecule gave an IC50 of 4800 nM.

In turn, `COc1ccc(CCCc2c[nH]c(C(=O)N3CCC[C@H]3C(=O)N[C@H](C=O)CC(=O)O)n2)cc1` [Compound 21e, (3S)3-{N-[4-[3-(4-Methoxyphenyl)propyl]imidazole-2-carbonyl]-L-prolinyl}amino-4-oxobutanoic acid] registered a melting point of 101 to 105 °C. The molecule further registered a 50% inhibitory concentration (IC50) in series [1] (Example 4 table) of 2900 nM.

As for `O=C[C@H](CC(=O)O)NC(=O)[C@@H]1CCCN1C(=O)c1nc(CCCc2ccc(O)cc2)c[nH]1` [Compound 21f, (3S)3-{N-[4-[3-(4-Hydroxyphenyl)propyl]imidazole-2-carbonyl]-L-prolinyl}amino-4-oxobutanoic acid], the melting point was 114 to 118 °C. The molecule also came in with an IC50 in series [1] (Example 4 table) of 2900 nM.

As a reminder, the Ki is a measure of affinity in units of concentration, obtained from inhibition or displacement. Molecule `C[C@H](NC(=O)c1cnc(CCc2ccc(C(F)(F)F)cc2)[nH]1)C(=O)N[C@H](C=O)CC(=O)O` [Compound 33b, (3S)3-{N-[2-(2-[4-Trifluoromethylphenyl]ethyl)imidazole-4-carbonyl]-L-alaninyl}-amino-4-oxobutanoic acid] showed a melting point of 120 to 124 °C. For the same molecule, the inhibitory constant (Ki) in series [2] (Example 2 table) stood at 10000 nM. Further, the affinity in series [2] (Example 4 table), expressed as Ki, was 10000 nM. This molecule also yielded an IC50 in series [1] (Example 2 table) greater than 30000 nM. The IC50 in series [1] (Example 4 table) was greater than 30000 nM.

`C[C@H](NC(=O)c1ccc(Cc2ccccc2)[nH]1)C(=O)N[C@H](C=O)CC(=O)O` [Compound 36b, (3S)3-[N-(5-Benzylpyrrole-2-carbonyl)-L-alaninyl]amino-4-oxobutanoic acid] gave a melting point of 109 to 112 °C. Moreover, 17000 nM corresponded to half-maximal inhibition in series [1] (Example 4 table) (IC50).

The molecule `O=C[C@H](CC(=O)O)NC(=O)[C@@H]1CCCN2CCC[C@H](NC(=O)CCc3ccccc3)C(=O)N12` [Compound 47b, [3S,(1S,9S)]3-(Octahydro-10-oxo-9-(3-phenylpropionylamino)-6H-pyridazino-[1,2-a][1,2]diazepine-1-carboxamido)-4-oxobutanoic acid] displayed a melting point of 87 to 90 °C. The affinity in series [2] (Example 4 table) corresponds to a Ki of 27 nM. The molecule further came in with an IC50 in series [1] (Example 4 table) of 1800 nM.

Take `CCCCc1ccc(NC(=O)CCc2ccccc2)c(=O)n1CC(=O)N[C@H](C=O)CC(=O)O` [Compound 54d, 3(S)3-(6-Butyl-1,2-dihydro-2-oxo-3-(3-phenylpropionyl)amino-1-pyridyl)acetylamino-4-oxobutanoic acid]: the melting point fell in the range of 120 to 125 °C. In series [2] (Example 4 table), the Ki was determined as 1000 nM.

For the molecule `Cc1ccc(NC(=O)CCc2ccccc2)c(=O)n1CC(=O)N[C@H](C=O)CC(=O)O` [Compound 54e, 3(S)3-(1,2-Dihydro-6-methyl-2-oxo-3-(3-phenylpropionyl)amino-1-pyridyl)acetylamino-4-oxobutanoic acid], the melting point lay within 129 to 138 °C. In series [2] (Example 4 table), this molecule came in with a Ki of 3500 nM.

Take `O=C[C@H](CC(=O)O)NC(=O)Cn1cccc(NC(=O)CCc2ccccc2)c1=O` [Compound 54g, 3(S)3-(1,2-Dihydro-2-oxo-3-(3-phenylpropionyl)amino-1-pyridyl)acetylamino-4-oxobutanoic acid]: the melting point was 140 to 145 °C (dec.). In addition, the inhibitory constant (Ki) in series [2] (Example 2 table) amounted to 4800 nM. In series [2] (Example 4 table), this molecule registered a Ki of 4800 nM. The molecule further gave an IC50 in series [1] (Example 4 table) greater than 20000 nM.

For the molecule `O=C[C@H](CC(=O)O)NC(=O)Cn1c(Cc2ccccc2)ccc(NS(=O)(=O)CCc2ccccc2)c1=O` [Compound 54j, 3(S)3-(6-Benzyl-1,2-dihydro-2-oxo-3-(2-phenylethane-sulphonyl)amino-1-pydridyl)acetylamino-4-oxobutanoic acid], the melting point fell in the range of 102 to 105 °C. In series [2] (Example 4 table), this molecule showed an inhibition constant Ki of 280 nM. Besides, the IC50 in series [1] (Example 6 table) was found to be 10000 nM.

Take `O=C[C@H](CC(=O)O)NC(=O)Cn1c(Cc2ccccc2)ccc(NC(=O)OCCc2ccccc2)c1=O` [Compound 54k, 3(S)3-(6-Benzyl-1,2-dihydro-2-oxo-3-(2-phenylethoxy)carbonylamino-1-pyridyl)acetylamino-4-oxobutanoic acid]: the melting point lay within 84 to 86 °C. The inhibition constant Ki in series [2] (Example 4 table) worked out at 85 nM. The molecule also gave an IC50 in series [1] (Example 6 table) of 6600 nM.

`O=C(O)CC(NC(=O)Cn1c(Cc2ccccc2)ccc(NC(=O)CCc2ccccc2)c1=O)C(=O)COC(=O)c1c(Cl)cccc1Cl` (stereo not drawn) [Compound 57b, N-2-(6-Benzyl-1,2-dihydro-2-oxo-3-(3-phenylpropionyl)amino-1-pyridyl)acetyl-3-amino-5-(2,6-dichloro-benzoyloxy)-4-oxo-pentanoic acid]: the melting point was 116 to 120 °C (dec.). Also, inhibition in series [1] (Example 6 table) was half-maximal at 2200 nM (IC50).

The molecule `O=C(O)C[C@H](NC(=O)[C@@H]1CCCN2C(=O)CC[C@H](NC(=O)CCc3ccccc3)C(=O)N12)C(=O)CSCc1ccccc1Cl` [Compound 125b, [3S(1S,9S)]-3-(6,10-dioxo-1,2,3,4,7,8,9,10-octahydro)-9-(3-phenylpropionyl-amino)-6H-pyridazine[1,2-a][1,2]diazepine-1-carboxamido-5-(2-chlorophenyl-methylthio)-4-oxopentanoic acid] gave a melting point of 76 to 80 °C. For the same molecule, in series [2] (Example 6 table), affinity was put at a Ki of 60 nM. In addition, the IC50 in series [1] (Example 6 table) is 300 nM.

For the molecule `CC(=O)N[C@@H](Cc1ccc(O)cc1)C(=O)N[C@H](C(=O)N1CCCC[C@H]1C(=O)N[C@H](C=O)CC(=O)O)C(C)C` [H, N-(N-Acetyl-tyrosinyl-valinyl-pipecolyl)-3-amino-4-oxobutanoic acid] (Ac-YV[Pip]D-aldehyde), the Ki in series [2] (Example 2 table) is 23 nM; in series [3] it was 4.7 nM. The same molecule registered a 50% inhibitory concentration (IC50) in series [1] (Example 2 table) of 6000 to 11000 nM.
